Data reported in patent US7179954B1, “Isolated nucleic acids coding for a nuclear base transporter and uses thereof” (Carnegie Insitution of Washington, priority 1999, dated 2007).
Values belong to the molecule of their own block, whether it stands above or below them.

Tests used:
[1] = target: T1, PUP1 nuclear base transporter (Arabidopsis thaliana, UniProt Q9FZ96, S63G); test: Influence of inhibitors on PUP1-mediated adenine or cytosine uptake in yeast strain MG887ura3-::pFL61-PUP1; assay type: cell-based; settings: for Relative adenine uptake / Relative cytosine uptake: added five minutes before measurement, without inhibitor = 100; for Effect on PUP1-mediated adenine or cytosine uptake: statement in words
T1 construct: The PUP1 protein expressed by the yeast strain MG887ura3^−::pFL61-PUP1; expressed in transfected cells; host or cells: Saccharomyces cerevisiae MG887ura3- (fcy2), plasmid pFL61-PUP1
T1 sequence (Q9FZ96 whole entry S63G): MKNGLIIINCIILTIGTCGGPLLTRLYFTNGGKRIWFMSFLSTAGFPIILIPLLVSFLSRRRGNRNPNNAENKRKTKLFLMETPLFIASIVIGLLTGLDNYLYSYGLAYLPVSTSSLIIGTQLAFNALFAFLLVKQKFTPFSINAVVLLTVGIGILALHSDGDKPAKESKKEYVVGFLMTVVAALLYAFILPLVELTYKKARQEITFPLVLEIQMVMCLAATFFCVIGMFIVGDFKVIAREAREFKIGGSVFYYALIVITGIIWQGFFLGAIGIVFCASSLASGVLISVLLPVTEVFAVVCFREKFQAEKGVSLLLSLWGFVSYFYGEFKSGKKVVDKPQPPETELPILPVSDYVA
Method: (§1) For measuring the rate of uptake the yeast strains MG887ura3^−::pFL61, MG887ura3^−::pFL61-PUP1 and their original strain Σ1278b (Dubois & Grenson, 1979, Mol. Gen. Genet. 175, 67–76) were cultured in complete medium (YPD) without uracil and with 2% glucose as carbon source up to an OD600 of 0.6 at 28° C. The cells were harvested at 3000 g, washed twice with water and brought to an OD600 of 12 with sodium phosphate buffer (100 mM, pH 4.5), 1% glucose. The cell suspension was stored in 100 μl portions on ice up to the beginning of the uptake measurements. Before the start of the uptake measurements the cells were pre-incubated at 30° C. for 2 minutes. The reaction was then started, by which 100 μl of radioactively labelled substrate solution was added to 100 μl cell suspension. The reaction mixture was incubated at 30° C. and after 30, 60, 120 and 180 seconds in each case 50 μl of suspension was withdrawn and placed in 4 ml of ice-cold water (in measurements over 180 seconds more cell suspension and substrate solution were correspondingly added). The cells were absorbed on to glass fibre filters and washed with 4 ml of ice-cold water. The radioactivity on the filters was finally ascertained in a liquid scintillation counter.
(§2) Substrate solution: For the substrate solution what is concerned is a 100 mM sodium phosphate buffer pH 4.5 with 1% glucose and 9.25 Bq/μl of radioactively labelled substrate (25–100 μM [^14C] adenine or [^14C] cytosine). In addition the substrate solution contains the unlabelled substrate, possible inhibitors and competitors in double end-concentration. For estimation of the optimum pH the pH value of the sodium phosphate buffer is also changed. When the influence of glucose on the uptake rate is measured neither the cell suspension nor the substrate solution contains glucose. Glucose is only added after starting the uptake measurements at the commencement of measuring at an end-concentration of 1%.
The influence of various inhibitors on the adenine or cytosine uptake mediated by the PUP1 nuclear base transporter in the yeast strain MG887ura3^−::pFL61-PUP1 is indicated in Table 2. The inhibitors were added to the cells five minutes before beginning the measurements. […] This may be taken as a clear indication of a secondarily active proton-associated uptake mechanism.

[2] = target: T2, PUP1 nuclear base transporter (Arabidopsis thaliana, UniProt Q9FZ96); test: Uptake of radioactively labelled adenine and cytosine by yeast strain MG887ura3-::pFL61-PUP1; assay type: cell-based; settings: initial concentration medium 200 μM; intracellular, cell volume estimated as four times the dry weight
T2 construct: The PUP1 protein expressed by the yeast strain MG887ura3^−::pFL61-PUP1; expressed in transfected cells; host or cells: Saccharomyces cerevisiae MG887ura3- (fcy2), plasmid pFL61-PUP1
T2 sequence (Q9FZ96 whole entry S63G): as above
Method: as §1, §2
(§3) In Table 1 the uptake of radioactively labelled adenine and cytosine mediated by the PUP1 nuclear base transporter is indicated by the yeast strain MG887ura3^−::pFL61-PUP1. For calculation of the intracellular concentration the cell volume is estimated as four times the dry weight (Ninnemann et al., 1994, EMBO J. 15, 3464–3471). The uptake occurs against a concentration gradient.

[3] = target: T1, PUP1 nuclear base transporter; test: as above; assay type: cell-based
Method: as §1, §2, §3

PUP1 [4] = target: T3, PUP1 (Arabidopsis thaliana, UniProt Q9FZ96, S63G); test: Sensitivity of yeast MG887ura3- clones to caffeine-containing minimal medium; assay type: cell-based; design: PUP1 was expressed under control of the yeast ATPase promoter PMA1 in the vector pDR195; expressed in transfected cells; host or cells: Saccharomyces cerevisiae MG887ura3- (A5, A8) or DM734-284D (A7), construct pDR195PUP1; settings: minimal medium plates, 6 days at 28° C.
T3 sequence (Q9FZ96 whole entry S63G): as above
Method: In order to check whether PUP1 mediates the transport of caffeine, the sensitivity of the Saccharomyces cerevisiae strain MG887ura3^− to caffeine-containing minimal medium was investigated. At certain concentrations caffeine is toxic to yeast (Bard et al., J. Bacteriol. 141, 999–1002), leading to slower growth or death of the yeast.
For this test various caffeine concentrations between 0 and 1.5% were put into minimal medium. Yeast clones grown in liquid minimal medium for 16 hours were spread out on the corresponding plates and incubated for 6 days at 28° C.

[5] = target: T1, PUP1 nuclear base transporter; test: cell-based
Method: as §1

[6] = target: T1, PUP1 nuclear base transporter; assay type: cell-based; settings: for Transport of cytokinin by PUP1: 3H-labelled cytokinins
Method: The uptake was set temporarily at a concentration of 100 μM trans-zeatin. In this case PUP1 was expressed under control of the yeast ATPase promoter PMA1 in the vector pDR195 (Rentsch et al., 1995, FEBS Left. 370, […]) in the mutant MG877ura3^−::(FCY). The empty vector (FCY2pDR195) served as control.
as §1
The uptake experiments were carried out with ^3H-labelled zeatine in MG887ura3^− as for adenine. To start the reaction 87.3Bq/μl of the radioactive substrate was added to a total concentration of 100 μM trans-zeatine.

PUP1 [7] = target: T3, PUP1; test: Growth of yeast strain DM734-284D on adenosine minimal medium (adenosine transport complementation); assay type: cell-based; design: PUP1 was expressed under control of the yeast ATPase promoter PMA1 in the vector pDR195; expressed in transfected cells; host or cells: Saccharomyces cerevisiae MG887ura3- (A5, A8) or DM734-284D (A7), construct pDR195PUP1; settings: minimal medium with 150 μM adenosine instead of adenine; after 3 days
Excerpt: The Saccharomyces cerevisiae strain DM734-284D (genotype: ade8-18, ade2-1, arg-4-16, leu2-17, trp1-1, lys2, ura3: Yeast Genetic Stock Center) was used for growth studies. This yeast strain owing to mutations at the gene loci ade 8-18 and ade 2-1 is not itself in a position to synthesize adenine. […] This adenine is taken up via the purine/cytosine transporter FCY2 of the yeast. The DM734-284D strain is however still in a position to grow in medium containing adenosine instead of adenine, provided adenosine transport in the yeast cells is mediated by an adenosine transporter inserted by genetic engineering.
In order to check whether PUP1 mediates the transport of adenosine, the strain DM734-284D was transformed according to the standard procedure for yeast transformation (Dohmen et al., 1991, Yeast 7,691–692) with the constructs pDR195PUP1 and pDR195 as controls (Rentsch et al., 1995, FEBS Lett. 370, […]). For final checking of the transformation the early stages of transformation were plated on minimal medium containing 150 μM adenine and the amino acids arginine, leucine, tryptophane (each 60 mg/l) and lysine (70 mg/l) necessary for growth. Uracil served as transformation marker. Three independent positive clones of the control and the PUP1-expressing clone were plated on minimal medium containing 150 μM adenosine instead of 150 μM adenine.

Molecule: O=[N+]([O-])c1ccc(O)c([N+](=O)[O-])c1 [2,4-DNP, 2,4-dinitrophenol]
Relative adenine uptake ([1]; 100 μM inhibitor): 54% | Relative cytosine uptake ([1]; 100 μM inhibitor): 58% | Effect on PUP1-mediated adenine or cytosine uptake [1]: block the uptake

Molecule: C(=NC1CCCCC1)=NC1CCCCC1 [DCCD]
Relative adenine uptake ([1]; 100 μM inhibitor): 47% | Relative cytosine uptake ([1]; 100 μM inhibitor): 55%

Molecule: Nc1cc[nH]c(=O)n1 [Cytosine, cytosine]
End conc Cells [2]: 2660 µM | Enrichment factor ([3]; cells versus medium, initial concentration medium 200 μM): 18 | End conc. Medium ([3]; initial concentration medium 200 μM, yeast strain MG887ura3-::pFL61-PUP1): 145 µM | pH dependence of PUP1-mediated uptake ([3]; yeast strain MG887ura3-::pFL61-PUP1, FIG. 2, substrate 100 μM): dependent on the pH level | Glucose dependence of PUP1-mediated uptake ([3]; yeast strain MG887ura3-::pFL61-PUP1, FIG. 3, glucose 1%): glucose-dependent

Molecule: Cn1c(=O)c2c(ncn2C)n(C)c1=O [caffeine]
Caffeine concentration from which PUP1-expressing yeasts displayed distinctly slowed-down growth compared to control and PUP2-expressing strain (PUP1 [4]): ≥ 0.2%

Molecule: C[C@@H]1C[C@@H]([C@H](O)CC2CC(=O)NC(=O)C2)C(=O)[C@@H](C)C1 [cycloheximide]
Relative adenine uptake ([1]; 10 μg/ml inhibitor): 95% | Relative cytosine uptake ([1]; 10 μg/ml inhibitor): 97%

Molecule: c1coc(CNc2ncnc3[nH]cnc23)c1 [kinetin]
Ki [5]: 35 µM

Molecule: 2-isopentenyl adenine
Transport of cytokinin by PUP1 [6]: can also transport cytokinins

Ki [5]: 30 µM | Increased uptake of radioactively labelled trans-zeatine, PUP1-expressing clone versus control strain (pDR195) ([6]; 100 μM trans-zeatine, three independent experiments): 70 times | Transport of cytokinin by PUP1 [6]: can also transport cytokinins
Molecule: C/C(=C\CNc1ncnc2[nH]cnc12)CO [zeatin]

Molecule: N#CC(C#N)=NNc1cccc(Cl)c1 [CCCP, carbonyl-cyanide-m-chlorphenylhydrazone]
Relative adenine uptake ([1]; 100 μM inhibitor): 13% | Relative cytosine uptake ([1]; 100 μM inhibitor): 20% | Effect on PUP1-mediated adenine or cytosine uptake [1]: block the uptake

Molecule: CC/C(=C(/CC)c1ccc(O)cc1)c1ccc(O)cc1 [diethylstilboestrol]
Relative adenine uptake ([1]; 100 μM inhibitor): 4% | Relative cytosine uptake ([1]; 100 μM inhibitor): 8% | Effect on PUP1-mediated adenine or cytosine uptake [1]: block the uptake

Molecule: Nc1ncnc2c1ncn2[C@@H]1O[C@H](CO)[C@@H](O)[C@H]1O [adenosine]
Growth of PUP1-expressing clone (PUP1 [7]): Definite growth | Growth of clone transformed with the vector pDR195 (control) (PUP1 [7]): no growth
